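Dose response: 5 concentrations. Exposure: 48 h. Format: 96-well plates. Endpoint: linear interpolation; highest concentration if not reached. GI50 marks 50% less growth.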 The source made the active and inactive calls. Cut-off read from the data, not from the text of the source: active = GI50 up to about 1.1 µM and inactive = higher.
Experiments:
Assay in all cases: NCI-60 cell line screen, 48 h
SF-295 = system: SF-295
DMS-273 = system: DMS-273
NCI-H460 = system: NCI-H460
DLD-1 = system: DLD-1
SW-620 = system: SW-620
Malme-3M = system: Malme-3M
SNB-78 = system: SNB-78
SNB-19 = system: SNB-19
CAKI-1 = system: CAKI-1
SF-539 = system: SF-539
TK-10 = system: TK-10
OVCAR-3 = system: OVCAR-3
HCC 2998 = system: HCC 2998
RPMI-8226 = system: RPMI-8226
MOLT-4 = system: MOLT-4
NCI-H522 = system: NCI-H522
RXF 393 = system: RXF 393
OVCAR-8 = system: OVCAR-8
IGROV-1 = system: IGROV-1
LXFL 529 = system: LXFL 529
UACC-257 = system: UACC-257
HCT-15 = system: HCT-15
HT-29 = system: HT-29
HOP-18 = system: HOP-18
LOX IMVI = system: LOX IMVI
SNB-75 = system: SNB-75
M14 = system: M14
NCI-H226 = system: NCI-H226
A549 = system: A549
EKVX = system: EKVX
COLO 205 = system: COLO 205
HL-60 = system: HL-60
XF498 = system: XF498
SF-268 = system: SF-268
HCT-116 = system: HCT-116
U-251 = system: U-251
OVCAR-4 = system: OVCAR-4
DMS-114 = system: DMS-114
CCRF-CEM = system: CCRF-CEM
SR = system: SR
OVCAR-5 = system: OVCAR-5
SK-MEL-2 = system: SK-MEL-2
M19-MEL = system: M19-MEL
SK-OV-3 = system: SK-OV-3
NCI-H23 = system: NCI-H23
SK-MEL-5 = system: SK-MEL-5
SN12C = system: SN12C
KM12 = system: KM12
A498 = system: A498
SK-MEL-28 = system: SK-MEL-28
UO-31 = system: UO-31
786-0 = system: 786-0
ACHN = system: ACHN
HOP-62 = system: HOP-62
HOP-92 = system: HOP-92
K562 = system: K562
KM-20L2 = system: KM-20L2

Measured: GI50

CCc1cccc(C(C)C)c1NC(=O)CC1Sc2ccccc2NC1=O (configuration not stated)
active: CAKI-1 241 nM
47.9 µM: HCT-15
inactive: SF-295 44.3 µM | DMS-273 34 µM | NCI-H460 71.4 µM | DLD-1 47.4 µM | SW-620 13 µM | Malme-3M 83.6 µM | SNB-78 > 100 µM | SNB-19 23.2 µM | SF-539 > 100 µM | TK-10 > 100 µM | OVCAR-3 56 µM | HCC 2998 > 100 µM | RPMI-8226 48.5 µM | MOLT-4 32.4 µM | NCI-H522 33.4 µM | RXF 393 41 µM | OVCAR-8 78 µM | IGROV-1 37.8 µM | LXFL 529 43.5 µM | UACC-257 43.8 µM | HT-29 55.6 µM | HOP-18 > 100 µM | LOX IMVI 45 µM | SNB-75 60.7 µM | M14 38.6 µM | NCI-H226 > 100 µM | A549 49.2 µM | EKVX 80.5 µM | COLO 205 50.4 µM | HL-60 24 µM | XF498 53.6 µM | SF-268 > 100 µM | HCT-116 56.4 µM | U-251 71 µM | OVCAR-4 76.2 µM | DMS-114 44.1 µM | CCRF-CEM 47.5 µM | SR 30.1 µM | OVCAR-5 > 100 µM | SK-MEL-2 39.5 µM | M19-MEL 40.6 µM | SK-OV-3 > 100 µM | NCI-H23 52.8 µM | SK-MEL-5 36.5 µM | SN12C > 100 µM | KM12 54.8 µM | A498 46.8 µM | SK-MEL-28 > 100 µM | UO-31 43.3 µM | 786-0 80 µM | ACHN 51.6 µM | HOP-62 > 100 µM | HOP-92 39.5 µM | K562 44.6 µM

O=c1c2cc(Br)ccc2n(C2OC(CO)C(O)C(O)C2O)c(=S)n1-c1ccccc1 (configuration not stated)
inactive: SF-295 > 100 µM | NCI-H460 > 100 µM | DLD-1 > 100 µM | SW-620 > 100 µM | Malme-3M > 100 µM | SNB-78 > 100 µM | SNB-19 > 100 µM | SF-539 > 100 µM | TK-10 > 100 µM | OVCAR-3 > 100 µM | HCC 2998 > 100 µM | RPMI-8226 > 100 µM | MOLT-4 86.7 µM | NCI-H522 > 100 µM | RXF 393 > 100 µM | OVCAR-8 > 100 µM | IGROV-1 > 100 µM | LXFL 529 74.3 µM | UACC-257 > 100 µM | HT-29 > 100 µM | HOP-18 > 100 µM | LOX IMVI > 100 µM | SNB-75 68.1 µM | NCI-H226 > 100 µM | A549 > 100 µM | EKVX > 100 µM | COLO 205 > 100 µM | HL-60 > 100 µM | XF498 50.5 µM | KM-20L2 > 100 µM | SF-268 > 100 µM | HCT-116 > 100 µM | U-251 > 100 µM | OVCAR-4 > 100 µM | DMS-114 > 100 µM | SR 73.3 µM | OVCAR-5 > 100 µM | SK-MEL-2 > 100 µM | M19-MEL > 100 µM | NCI-H23 > 100 µM | SN12C > 100 µM | KM12 > 100 µM | A498 > 100 µM | SK-MEL-28 > 100 µM | UO-31 > 100 µM | 786-0 82.4 µM | ACHN > 100 µM | HOP-62 > 100 µM | HOP-92 98.2 µM | K562 > 100 µM
> 100 µM: HCT-15
